# In ChEMBL document CHEMBL5316368, “Di- and Triterpenoids from the Rhizomes of Isodon amethystoides and Their Anti-inflammatory Activities” (J Nat Prod, 2023):
# Active and inactive are the calls of the source. No cut-off for these calls is given here.
# Columns and labels:
# RAW264.7 [1] = assay: Antiinflammatory activity against LPS-stimulated mouse RAW264.7 cells assessed as inhibition of NO production preincubated with compound for 2 hrs followed by LPS stimulation and measured after 24 hrs by Griess reagent based analysis; format: functional, cell-based; settings: dose 10-40 µM, time 26.0 hrs
# RAW264.7 [2] = assay: Cytotoxicity against mouse RAW264.7 cells assessed as cell viability by MTT assay; format: functional, cell-based
# RAW264.7 [3] = assay: Antiinflammatory activity against LPS-stimulated mouse RAW264.7 cells assessed as suppression of NO secretion at 20 uM preincubated with compound for 2 hrs followed by LPS stimulation and measured after 24 hrs by Griess reagent based assay relative to control; format: functional; settings: time 26 hrs
# RAW264.7 [4] = assay: Antiinflammatory activity against LPS-stimulated mouse RAW264.7 cells assessed as downregulation of LPS-induced iNOS expression preincubated with compound for 2 hrs followed by LPS stimulation and measured after 24 hrs by Western blot analysis; format: functional, cell-based; settings: dose 10-40 µM, time 26.0 hrs
# A549 = assay: Anticancer activity against human A549 cells assessed as inhibition of cell growth incubated for 48 hrs by MTT assay; format: functional, cell-based; settings: A549, 48 h
# NCI-H1975 = assay: Anticancer activity against human NCI-H1975 cells assessed as inhibition of cell growth incubated for 48 hrs by MTT assay; format: functional, cell-based; settings: NCI-H1975, 48 h
# MCF7 = assay: Anticancer activity against human MCF7 cells assessed as inhibition of cell growth incubated for 48 hrs by MTT assay; format: functional, cell-based; settings: MCF7, 48 h
# MDA-MB-231 = assay: Anticancer activity against human MDA-MB-231 cells assessed as inhibition of cell growth incubated for 48 hrs by MTT assay; format: functional, cell-based; settings: MDA-MB-231, 48 h
structure (smiles),measurement,setting,value
CC(C)c1cc2c(cc1O)[C@@]1(C)CCC[C@](C)(CO)[C@@H]1CC2,inhibition,RAW264.7 [1],Dose-Dependent Effect
CC(C)c1c(O)ccc2c1CC[C@H]1C(C)(C)C(=O)CC[C@]21C,Activity,RAW264.7 [2],inactive
same,inhibition,RAW264.7 [1],Dose-Dependent Effect
CC1(C)CC[C@]2(C(=O)O)CC[C@]3(C)C(=C2C1)C=CC1[C@@]2(C)C[C@@H](O)[C@H](O)C(C)(C)[C@@H]2CC[C@]13C (stereo partly specified),Activity,RAW264.7 [2],inactive
CC(C)c1ccc2c(c1O)CC[C@@H]1[C@@](C)(CO)CCC[C@@]21C,Activity,RAW264.7 [2],inactive
same,inhibition,RAW264.7 [1],Dose-Dependent Effect
same,Activity,RAW264.7 [3],94%
same,Activity,RAW264.7 [4],Dose-Dependent Effect
CC(C)c1cc2c(cc1O)[C@@]1(C)CC[C@H](O)C(C)(C)[C@@H]1CC2,Activity,RAW264.7 [2],inactive
CC(C)c1cc2c(cc1O)CC[C@H]1[C@](C)(CO)CCC[C@]21C,Activity,RAW264.7 [2],inactive
same,inhibition,RAW264.7 [1],Dose-Dependent Effect
same,Activity,RAW264.7 [4],Dose-Dependent Effect
C=C1[C@@H]2CC[C@H]3[C@]4(C)CC[C@@H](O)C(C)(C)[C@H]4C[C@@H](O)[C@]3(C2)[C@@H]1O,Activity,RAW264.7 [2],inactive
CC(C)c1c(O)ccc2c1CC[C@H]1C(C)(C)[C@@H](O)CC[C@]21C,Activity,RAW264.7 [2],inactive
C[C@@H]1CC[C@]2(C(=O)O)CC[C@]3(C)C(=CCC4[C@@]5(C)C[C@@H](O)[C@H](OC(=O)/C=C/c6ccc(O)cc6)C(C)(C)[C@@H]5CC[C@]43C)C2[C@H]1C (stereo partly specified),Activity,RAW264.7 [2],inactive
CC(C)C(=O)OC1=C[C@@]2(CO)C(CC[C@]3(C)C2CC=C2C4[C@](C(=O)O)(CC[C@@H](C)[C@@]4(C)O)CC[C@]23C)C(C)(C)C1 (stereo partly specified),Activity,RAW264.7 [2],inactive
CC1(C)CC[C@]2(C(=O)O)CC[C@]3(C)C(=CC[C@@H]4[C@@]5(C)C[C@@H](O)[C@H](O)C(C)(C)[C@@H]5CC[C@]43C)[C@@H]2C1,Activity,RAW264.7 [2],inactive
C=C1[C@@H]2CC[C@H]3[C@]4(C)CCC[C@](C)(CO)[C@H]4C[C@H](O)[C@]3(C2)[C@@H]1O,Activity,RAW264.7 [2],inactive
CC(C)c1c(O)ccc2c1CC[C@H]1[C@@](C)(C(=O)O)CCC[C@]21C,Activity,RAW264.7 [2],inactive
same,inhibition,RAW264.7 [1],Dose-Dependent Effect
CC(C)c1cc2c(cc1O)[C@@]1(C)CCC[C@](C)(CO)[C@@H]1C=C2,Activity,RAW264.7 [2],inactive
COc1cc2c(cc1C(C)C)CC[C@H]1[C@@](C)(C(=O)O)CCC[C@]21C,Activity,RAW264.7 [2],inactive
CC(C)c1cc2c(cc1O)C(=O)C[C@H]1C(C)(C)CCC[C@]21C,Activity,RAW264.7 [2],inactive
same,inhibition,RAW264.7 [1],Dose-Dependent Effect
same,Activity,RAW264.7 [3],86%
same,Activity,RAW264.7 [4],Dose-Dependent Effect
CC(C)c1cc2c(cc1O)[C@@]1(C)CC[C@H](O)[C@](C)(C=O)[C@@H]1CC2,Activity,RAW264.7 [2],inactive
same,Activity,RAW264.7 [3],95%
CC(C)c1cc2c(cc1O)CC[C@H]1C(C)(C)[C@@H](O)CC[C@]21C,Activity,RAW264.7 [2],inactive
same,inhibition,RAW264.7 [1],Dose-Dependent Effect
same,Activity,RAW264.7 [3],91%
same,Activity,RAW264.7 [4],Dose-Dependent Effect
C=C1[C@@H]2CC[C@H]3[C@]4(C)CC[C@@H](O)C(C)(C)[C@H]4C[C@H](OC(C)=O)[C@]3(C2)[C@@H]1O,Activity,RAW264.7 [2],inactive
C=C1C(=O)[C@]23C[C@H]1CC[C@H]2[C@]1(C)CC[C@@H](O)C(C)(C)[C@H]1C[C@@H]3OC(C)=O,Activity,RAW264.7 [2],inactive
same,IC50,A549,4.7 µM
same,IC50,NCI-H1975,6.3 µM
same,IC50,MCF7,7.4 µM
same,IC50,MDA-MB-231,6.6 µM
CC1(C)CC[C@]2(C(=O)O)CC[C@]3(C)C(=CCC4[C@@]5(C)C[C@@H](O)[C@@H](O)C(C)(C)[C@@H]5CC[C@]43C)C2C1 (stereo partly specified),Activity,RAW264.7 [2],inactive
C[C@@H]1CC[C@]2(C(=O)O)CC[C@]3(C)C(=CCC4[C@@]5(C)C[C@@H](O)OCC(C)(C)C5CC[C@]43C)C2[C@]1(C)O (stereo partly specified),Activity,RAW264.7 [2],inactive
CC(C)c1cc2c(cc1O)C(=O)C[C@H]1[C@@](C)(CO)CCC[C@]21C,Activity,RAW264.7 [2],inactive
same,inhibition,RAW264.7 [1],Dose-Dependent Effect
CC(C)[C@@]1(O)CCC2=C(C1)C(=O)C[C@H]1C(C)(C)CC[C@H](O)[C@]21C,Activity,RAW264.7 [2],inactive
same,inhibition,RAW264.7 [1],Dose-Dependent Effect
CC(C)c1cc2c(cc1O)[C@@]1(C)CCCC(C)(C)[C@@H]1CC2=O,Activity,RAW264.7 [2],inactive
C=C1C(=O)O[C@H]2C3=CC[C@@H]4C(C)(C)C(=O)CC[C@@]4(C)[C@@H]3CC[C@@H]12,Activity,RAW264.7 [2],inactive
same,IC50,A549,> 10 µM
same,IC50,NCI-H1975,> 10 µM
same,IC50,MCF7,> 10 µM
same,IC50,MDA-MB-231,7.3 µM
CC(=O)[C@@H](C)CC[C@@]1(C(=O)O)C=C2C=CC3[C@@]4(C)C(C(=O)O)=CC(C)(C)[C@@H]4CC[C@@]3(C)[C@]2(C)CC1 (stereo partly specified),Activity,RAW264.7 [2],inactive
C=C1C(=O)[C@@]23CC[C@@H]4C(C)(C)C(=O)CC[C@@]4(C)[C@@H]2CC[C@@H]1C3,Activity,RAW264.7 [2],inactive
same,IC50,A549,> 10 µM
same,IC50,NCI-H1975,> 10 µM
same,IC50,MCF7,> 10 µM
same,IC50,MDA-MB-231,8.4 µM
COc1cc(/C=C/C(=O)O[C@H]2[C@H](O)C[C@]3(C)C4CC=C5C6CC(C)(C)CC[C@]6(C(=O)O)CC[C@@]5(C)[C@]4(C)CC[C@H]3C2(C)C)ccc1O (stereo partly specified),Activity,RAW264.7 [2],inactive
CC1(C)CC[C@]2(C(=O)O)CC[C@]3(C)C(=C2C1)CCC1[C@@]2(C)C[C@@H](O)[C@H](O)C(C)(C)[C@@H]2CC[C@]13C (stereo partly specified),Activity,RAW264.7 [2],inactive
C=C1CC[C@@H]2[C@](C)(C(=O)O)CCC[C@@]2(C)C1CCC1=CCOC1=O (stereo partly specified),Activity,RAW264.7 [2],inactive
CC(C)[C@H]1CC[C@H]2[C@@H](CC[C@H]3C(C)(C)CCC[C@]23C)C1,inhibition,RAW264.7 [1],Active
CC1(C)CC[C@]2(C(=O)O)CC[C@]3(C)C(=CCC4[C@@]5(C)C[C@@H](O)[C@H](OC(=O)/C=C/c6ccc(O)cc6)C(C)(C)[C@@H]5CC[C@]43C)C2C1 (stereo partly specified),Activity,RAW264.7 [2],inactive
C=C1CC[C@@H]2[C@](C)(CO)CCC[C@@]2(C)C1CCC1=CCOC1=O (stereo partly specified),Activity,RAW264.7 [2],inactive
C=C1CC[C@@H]2C(C)(C)[C@H](O)CC[C@@]2(C)C1CCC1=CCOC1=O (stereo partly specified),Activity,RAW264.7 [2],inactive
CC(=O)O[C@H]1C(=O)[C@@]2(C)[C@H]([C@H](OC(=O)c3ccccc3)[C@]3(O)C[C@H](OC(=O)[C@H](O)[C@@H](NC(=O)c4ccccc4)c4ccccc4)C(C)=C1C3(C)C)[C@]1(OC(C)=O)CO[C@@H]1C[C@@H]2O [PACLITAXEL],IC50,A549,0.018 µM
same,IC50,NCI-H1975,0.028 µM
same,IC50,MDA-MB-231,0.03 µM
C[C@@H]1CC[C@]2(C(=O)O)CC[C@]3(C)C(=CC[C@@H]4[C@@]5(C)C(CO)=CC(C)(C)[C@@H]5CC[C@]43C)[C@@H]2[C@]1(C)O [HYPTASIENIC ACID],Activity,RAW264.7 [2],inactive
same,IC50,A549,7.4 µM
same,IC50,NCI-H1975,> 10 µM
same,IC50,MCF7,> 10 µM
same,IC50,MDA-MB-231,> 10 µM
